Results as given in patent US4820836A, “Prostacyclin (PGI2) analogues” (Shionogi & Co., Ltd., priority 1986, dated 1989).
Read-outs that look alike come from different tables or passages of the source.

Test system: Platelet Agglutination
Assay: In vitro inhibition of platelet agglutination (rabbit platelet rich plasma, aggregometer) induced by arachidonic acid, collagen or ADP
Format: cell-based
Conditions: Oryctolagus cuniculus, rabbit PRP
Description: The inhibitory activity of the representative compounds of the present invention against platelet agglutination is shown in the following in vitro test.
Mature male rabbits (NIBS-JW, RABITON Institute Inc., weighing 2.2-2.7 kg) were used. Under sodium pentobarbital anesthesia (Somnopentyl, Pitman Movre, about 25 mg/Kg, i.v.), blood was with from the carotid artery by cannulation into centrifuge tubes containg 1/10 vol of a 3.8% sodium citrate solution. (The total volume in each tube was adjusted to 8 ml.) The blood in a tube was gentyl mixed by turing and centrifuged for 10 minutes at 210 g at 20° C. to give platelet rich plasma (PRP). The remaining blood was further centrifuged at 3,000 rpm (about 1,900 g) for 10 minutes at 20° C. to give platelet-poor plasma (PPP).
PRP was diluted with PPP to prepare a blood sample whose platelet number was 50-55×10^4 /μl. The sample was then subjected to a platelet agglutination test.
The platelet agglutination was examined by the method of Bron [Born, G.V.R., Nature, 194, 927-929 (1962)], using a Type AUTO RAM-61 aggregometer, (Rika Denki Co., Ltd., Tokyo). A volume of 400 μl of PRP, whose platelet number was adjusted to 50-55×10^4 /μl, was placed in a measuring cuvette and set in the aggregometer. PRP was warmed at 37° C. for 1 minute with stirring at 1,200 rpm, and then a solution of the test compound [dimethylsulfoxide solution (2 μl) of the compound+saline (48 μl); in case of prostaglandin I2 (PGI2) and prostaglandin E1 (PG E1), a solution of each compound (50 μl) in Tris buffer] was added thereto. Exactly 2 minutes later, 50 μl of ADP Pharmacia, U.S.A., (final concentration: 30 μM) or collagen (final muchen, muchen, concentration: 20 μg/ml) or arachidonic acid (sodium salt, Sigma, final concentration (500 μM) was added as a platelet agglutinating agent, and the change in light transmission caused by platelet agglutination was recorded.
The light transmissions of PRP and PPP were taken as 0% and 100% agglutination, respectively, and the maximum light transmission after addition of an agglutinating agent was made to the maxiumum agglutination. The inhibition rate of the platelet agglutination was expressed as the percentage of the maximum agglutination by a test compound to that by a control (Vehicle added group).
Prostaglandin (PG) I2 and E1 are served as standard substances.

[1] = ADP, final 30 μM, 37° C., compound in dimethylsulfoxide+saline, read-out: Inhibition Activity against Platelet Agglutination [50% Inhibition Concentration (μM)], ADP
[2] = arachidonic acid, final 500 μM, 37° C., compound in dimethylsulfoxide+saline, read-out: Inhibition Activity against Platelet Agglutination [50% Inhibition Concentration (μM)], Arachidonic acid
[3] = collagen, final 20 μg/ml, 37° C., compound in dimethylsulfoxide+saline, read-out: Inhibition Activity against Platelet Agglutination [50% Inhibition Concentration (μM)], Collagen

IC50 [1] [µM] | IC50 [2] [µM] | IC50 [3] [µM] | Compound | other results
– | – | – | CCCCC[C@H](O)/C=C/[C@H]1[C@H](O)CC(=O)[C@@H]1CCCCCCC(=O)O [PGE1, prostaglandin E1, reference compound] | IC50 (pH 7.4, ADP, final 30 μM, Tris buffer, pH7.4, read-out: Inhibition Activity against Platelet Agglutination [50% Inhibition Concentration (μM)], ADP): 0.066 µM; IC50 (pH 7.4, arachidonic acid, final 500 μM, Tris buffer, pH7.4, read-out: Inhibition Activity against Platelet Agglutination [50% Inhibition Concentration (μM)], Arachidonic acid): 0.25 µM; IC50 (pH 7.4, collagen, final 20 μg/ml, Tris buffer, pH7.4, read-out: Inhibition Activity against Platelet Agglutination [50% Inhibition Concentration (μM)], Collagen): 0.052 µM
0.167 | 0.332 | 0.044 | CCCCC[C@H](O)/C=C/[C@H]1[C@H](O)C[C@]2(C#N)N=C(SCCCC(=O)OCC)C[C@H]12 [17(S)m, ethyl 4-[1-cyano-7-hydroxy-6-[(3S)-3-hydroxy-1-octenyl]-2-azabicyclo[3.3.0]oct-2-en-3-yl]thiobutanoate] | –
0.006 | 0.01 | 0.0013 | CC#C[C@]12C[C@@H](O)[C@H](/C=C/[C@@H](O)CCCCC)[C@H]1CC(SCCCC(=O)OCC)=N2 [17(S)h] | –
– | – | – | CCCCC[C@H](O)/C=C/[C@@H]1[C@H]2C/C(=C/CCCC(=O)O)O[C@H]2C[C@H]1O [PGI2, prostaglandin I2] | IC50 (pH 8, ADP, final 30 μM, Tris buffer, pH8.0, read-out: Inhibition Activity against Platelet Agglutination [50% Inhibition Concentration (μM)], ADP): 0.014 µM; IC50 (pH 8, arachidonic acid, final 500 μM, Tris buffer, pH8.0, read-out: Inhibition Activity against Platelet Agglutination [50% Inhibition Concentration (μM)], Arachidonic acid): 0.054 µM; IC50 (pH 8, collagen, final 20 μg/ml, Tris buffer, pH8.0, read-out: Inhibition Activity against Platelet Agglutination [50% Inhibition Concentration (μM)], Collagen): 0.019 µM; IC50 (pH 10, ADP, final 30 μM, Tris buffer, pH10.0, read-out: Inhibition Activity against Platelet Agglutination [50% Inhibition Concentration (μM)], ADP): 0.016 µM; IC50 (pH 10, arachidonic acid, final 500 μM, Tris buffer, pH10.0, read-out: Inhibition Activity against Platelet Agglutination [50% Inhibition Concentration (μM)], Arachidonic acid): 0.09 µM; IC50 (pH 10, collagen, final 20 μg/ml, Tris buffer, pH10.0, read-out: Inhibition Activity against Platelet Agglutination [50% Inhibition Concentration (μM)], Collagen): 0.02 µM
18 | 160 | 9 | CCCCC[C@H](O)/C=C/[C@H]1[C@H](O)C[C@]2(CC)N=C(SCCCC(=O)OCC)C[C@H]12 [17(S)d] | –
8.43 | 11.7 | 4 | C#C[C@]12C[C@@H](O)[C@H](/C=C/[C@H](O)C(C)CC#CC)[C@H]1CC(SCCCC(=O)OCC)=N2 (stereo partly drawn) [17(R)g-d] | –
0.0042 | 0.0035 | 0.0028 | CC#C[C@]12C[C@@H](O)[C@H](/C=C/[C@@H](O)CCCCC)[C@H]1CC(SCCCC(=O)O)=N2 [19(S)h, sodium 4-[7-hydroxy-6-[(3S)-3-hydroxy-1-octenyl]-1-(1-propynyl)-2-azabicyclo[3.3.0]oct-2-en-3-yl]thiobutanoate] | –
142 | 443 | 54 | C=C[C@]12C[C@@H](O)[C@H](/C=C/[C@H](O)C3CCCC3)[C@H]1CC(SCCCC(=O)OCC)=N2 [17(R)l-f] | –
15 | 16 | 7 | CCCCC[C@H](O)/C=C/[C@H]1[C@H](O)C[C@]2(OC)N=C(SCCCC(=O)OCC)C[C@H]12 [17(S)b] | –
0.0049 | 0.0093 | 0.0093 | C#C[C@]12C[C@@H](O)[C@H](/C=C/[C@@H](O)CCCCC)[C@H]1CC(SCCCC(=O)O)=N2 [19(S)g, Sodium 4-[1-ethynyl-7-hydroxy-6-[(3S)-3-hydroxy-1-octenyl]-2-azabicyclo[3.3.0]oct-2-en-3-yl]thiobutanoate] | –
0.033 | 0.146 | 0.0094 | C#C[C@]12C[C@@H](O)[C@H](/C=C/[C@@H](O)C3CCCCC3)[C@H]1CC(SCCCC(=O)OCC)=N2 [17(S)g-e] | –
0.074 | 0.16 | 0.062 | CCCCC[C@H](O)/C=C/[C@@H]1[C@H]2CC(SCCCC(=O)OC)=N[C@H]2C[C@H]1O [Compound 18c, reference compound] | –
0.13 | 0.36 | 0.048 | C=C[C@]12C[C@@H](O)[C@H](/C=C/[C@@H](O)C(C)CC#CC)[C@H]1CC(SCCCC(=O)OCC)=N2 (stereo partly drawn) [17(S)l-d] | –
0.42 | 0.7 | 0.1 | C=C[C@]12C[C@@H](O)[C@H](/C=C/[C@@H](O)CCCCC)[C@H]1CC(SCCCC(=O)OCC)=N2 [17(S)l, ethyl 4-[1-ethenyl-7-hydroxy-6[(3S)-3-hydroxy-1-octenyl]-2-azabicyclo[3.3.0]oct-2-en-3-yl]thiobutanoate] | –
0.0241 | 0.081 | 0.011 | C#C[C@]12C[C@@H](O)[C@H](/C=C/[C@@H](O)CCCCC)[C@H]1CC(SCCCC(=O)OC)=N2 [18(S)g, methyl 4-[1-ethynyl-7-hydroxy-6-[(3S)-3-hydroxy-1-octenyl]-2-azabicyclo[3.3.0]oct-2-en-3-yl]thiobutanoate] | –
55 | 118 | 23 | C=C[C@]12C[C@@H](O)[C@H](/C=C/[C@H](O)C(C)CC#CC)[C@H]1CC(SCCCC(=O)OCC)=N2 (stereo partly drawn) [17(R)l-d] | –
1.6 | 4.4 | 0.6 | CCCCC[C@H](O)/C=C/[C@H]1[C@H](O)C[C@]2(C)N=C(SCCCC(=O)OCC)C[C@H]12 [17(S)e] | –
5 | 44 | 0.45 | CCCCC[C@H](O)/C=C/[C@H]1[C@H](O)C[C@]2(C#Cc3ccccc3)N=C(SCCCC(=O)OCC)C[C@H]12 [17(S)i] | –
0.011 | 0.02 | 0.006 | C#C[C@]12C[C@@H](O)[C@H](/C=C/[C@@H](O)CCCCC)[C@H]1CC(SCCCC(=O)OCC)=N2 [17(S)g, ethyl 4-[1-ethynyl-7-hydroxy-6-[(3S)-3-hydroxy-1-octenyl]-2-azabicyclo[3.3.0]oct-2-en-3-yl]thiobutanoate] | –
0.27 | 0.74 | 0.053 | C#CC#C[C@]12C[C@@H](O)[C@H](/C=C/[C@@H](O)CCCCC)[C@H]1CC(SCCCC(=O)OCC)=N2 [17(S)k, ethyl 4-[1-(1,3-butadiynyl)-7-hydroxy-6-[(3S)-3-hydroxy-1-octenyl]-2-azabicycl[3.3.0]oct-2-en-3-yl]thiobutanoate] | –
0.3 | 1.2 | 0.12 | C=C[C@]12C[C@@H](O)[C@H](/C=C/[C@@H](O)C3CCCC3)[C@H]1CC(SCCCC(=O)OCC)=N2 [17(S)l-f] | –
13.4 | 60.6 | 3 | C#C[C@]12C[C@@H](O)[C@H](/C=C/[C@H](O)C3CCCCC3)[C@H]1CC(SCCCC(=O)OCC)=N2 [17(R)g-e] | –
0.0066 | 0.012 | 0.0013 | C#C[C@]12C[C@@H](O)[C@H](/C=C/[C@@H](O)C(C)CCCC)[C@H]1CC(SCCCC(=O)OCC)=N2 (stereo partly drawn) [17(S)g-b] | –
2.06 | 1.55 | 0.54 | C#C[C@]12C[C@@H](O)[C@H](/C=C/[C@H](O)C(C)CCCC)[C@H]1CC(SCCCC(=O)OCC)=N2 (stereo partly drawn) [17(R)g-b] | –
0.014 | 0.018 | 0.0042 | C#C[C@]12C[C@@H](O)[C@H](/C=C/[C@@H](O)C(C)CC#CC)[C@H]1CC(SCCCC(=O)OCC)=N2 (stereo partly drawn) [17(S)g-d] | –
16 | 21 | 8 | CCCCC[C@H](O)/C=C/[C@H]1[C@H](O)C[C@]2(Sc3ccccc3)N=C(SCCCC(=O)OCC)C[C@H]12 [17(S)a, ethyl 4-[7-hydroxy-6-[(3S)-3-hydroxy-1-octenyl]-1-phenylthio-2-azabicyclo[3.3.0]oct-2-en-3-yl]thiobutanoate] | –
